# Measured values as given in patent US20250375492A1, “MONASCUS PILOSUS STRAIN, COMPOSITION FOR PREVENTING OR TREATING NONALCOHOLIC FATTY LIVER DISEASE AND USE OF SAID MONASCUS PILOSUS” (SUNWAY BIOTECH CO., LTD., priority 2024, published 2025).
# System: gut microbiota of nonalcoholic fatty liver mice
# Assay: Gut microbiota analysis (full-length 16S sequencing) in nonalcoholic fatty liver mice
# Type: in vivo, C57BL/6J mice
# Settings: compared with the HFD group; L008, H008 and Msol groups; FIG. 9
# Description: The experiment used 7-week-old male C57BL/6J strain mice purchased from the National Laboratory Animal Center. The initial body weight was about 23 g, with 12 mice per group. They were housed at 60% relative humidity, room temperature 25±1° C., with a 12-hour light cycle (8:00-20:00). The experiment lasted for 22 weeks, during which food and water were provided ad libitum. Body weight, food intake, and water consumption were measured weekly.
# Embodiment 4 uses a high-fat feed to induce a nonalcoholic fatty liver animal model. The animal experiment lasted for 22 weeks. Animal test feed was prepared according to the formula of Research Diets (New Brunswick, NJ, USA) for D12450B and D12492. The grouping is as follows: • i. […]
# Total genomic DNA was extracted from samples (QIAamp PowerFecal DNA, Qiagen). DNA concentration was determined using a Qubit 4.0 fluorometer (Thermo Scientific) and adjusted to 1 ng/μL. […] PCR reactions were performed using KAPA HiFi HotStart ReadyMix (Roche): 95° C., 3 minutes; 20-27 cycles (sample-dependent): 95° C., 30 seconds, 57° C., 30 seconds, 72° C., 60 seconds; 72° C. for 5 minutes, and final storage at 4° C. PCR products were monitored on 1% agarose gel. […]
# Sample data were demultiplexed from the raw data based on Barcode sequences and PCR amplification primer sequences. […] The sequences with primers removed were used as QIIME2 DADA2 Input Reads. […]
substance,measurement,value
Monascinol [Msol],microbial population (abundance) of Blautia in the intestine,increase
same,microbial population (abundance) of Intestinimonas in the intestine,increase
